Patent publication US11447533B2, “Antimicrobial and anticancer peptides and conjugates and compositions, methods, articles and kits relating thereto” (George Mason Research Foundation, Inc., priority 2018, dated 2022)
Entries after “also recorded” stand apart in the source; their conditions may differ.

What was measured:
[1] = tested on: E. coli ATCC 25922; experiment: Antimicrobial efficacy (resazurin virtual colony count); assay type: cell-based, Escherichia coli; settings: for decrease of efficacy in DPBS relative to 10 mM Na-PO4: DPBS versus 10 mM Na-PO4; for decrease of efficacy under physiologically relevant ionic conditions: PBS versus low ionic conditions; for increase of EC50 in presence of albumin relative to EC50 in DPBS: DPBS + 4% (w/v) bovine serum albumin versus DPBS
[2] = Endotoxin binding: competitive displacement of BODIPY TR-Cadaverine from LPS; design: species or system Escherichia coli; settings: 5 μM peptide; for LPS binding (BC displacement), in words: 10 μM BC, 10 μg/mL LPS, low ionic-strength 10 mM Na-PO4; for increase in affinity for LPS compared to the peptide lacking the hydrophobic tail: vs ATRA1 / ATRA1-R3W2
Procedure: FIGS. 2A-2B are graphs showing endotoxin binding. The figures depict the competitive displacement of BC from LPS/LTA by the peptides. 5 μM of each peptide was incubated with 10 μM BC and 10 μg/mL LPS from E. coli (0111:B4) or LTA from S. aureus. Fluorescence intensity was measured at excitation=580 nm and emission=620 nm. 10 μM BC without endotoxin was used as 100% displacement while 10 μM BC with 10 μg/mL LPS/LTA without any peptide as 0% displacement and the % displacement of BC by each peptide was calculated accordingly. […] had been used as a positive control. The horizontal dotted line coincides with the % displacement of BC by ATRA1 on the y-axis.
FIGS. 6A-6B are graphs showing endotoxin (LPS (FIG. 6A) and LTA (FIG. 6B)) binding. Competitive displacement of BC from LPS/LTA. In each case, 5 μM peptide was incubated with 10 μM BC and 10 μg/mL LPS from E. coli (0111:B4) or LTA from S. aureus. Fluorescence intensity was measured using excitation=580 nm and emission=620 nm. As a positive control 10 μM BC without endotoxin was used as a reference for 100% displacement while 10 μM BC with 10 μg/mL LPS/LTA without any peptide as a negative control and a reference for 0% displacement. These controls were used to calculate % BC displacement for each peptide.
Endotoxin Binding. The binding of endotoxin (LPS/LTA) was evaluated using a fluorogenic conjugateBODIPY TR-Cadaverine (BC). BC binds endotoxin loses its fluorescence. The peptide competitively displaces BC from endotoxin and the fluorescence is reestablished. Competitive inhibition of endotoxin-BC binding was utilized due to presence of peptides already in complexion with endotoxin. 25 μL of 20 μM of peptides in 10 mM Na—PO4 buffer were incubated with 25 μL of LPS (40 μg/mL) or LTA (40 μg/mL) for 15 min and then added with 50 μL of BC (20 uM). Peptides bind to LPS or LTA and competitively prevents BC bind to the endotoxin. BC loses its fluorescence on binding to endotoxin. The fluorescence intensity of the unbound BC was measured at excitation=580 nm and emission=620 nm.
BC contains two functional moieties: BODIPY (boron-dipyrromethene) and cadaverine connected via a carboxamide. BODIPY is the fluorophore of BC and fluoresces in the free state in solution but loses fluorescence when bound to LPS/LTA. The competitive displacement of BC from LPS/LTA by AMPs and thus regeneration of the fluorescence has frequently been used to estimate the binding strength of AMPs with LPS/LTA. In the present studies, 5 μM of each peptide was used to displace BC from LPS/LTA. […] Such observation contradicts the initial assumption that substitution of Lys with arginine would result in increased efficiency of LPS binding. However, with sequential substitutions of Lys with arginine, starting with ATRA1-AR, peptide variants show increased LPS binding with each additional arginine substitution. In terms of LPS binding: ATRA1-AR<ATRA1-AR2<ATRA1-AR3. In ATRA1-R3, the lysine residues at 9th, 5th and 1st positions of ATRA1 were substituted with arginine. In ATRA1-R6 all of the lysine residues were replaced with arginine.

[3] = DPBS (with Ca++ and Mg++), pH 7.4
[4] = PBS (high / physiologically relevant ionic strength), pH 7.4

Sequence | antimicrobial efficacy, in words [1, 3] | antimicrobial efficacy, in words [1, 4] | LPS binding (BC displacement), in words [2] | decrease of efficacy in DPBS relative to 10 mM Na-PO4 [1] | increase of EC50 in presence of albumin relative to EC50 in DPBS [1] | also measured
KRFKKFFKKLK (SEQ ID NO: 2) [ATRA1, first 11 residues of NA-CATH] | lose activity in DPBS; also recorded: lost antimicrobial property | effective in PBS | – | – | – | –
RRFRRFFRRLR (SEQ ID NO: 10) [ATRA1-R6] | highly effective in DPBS | – | bound LPS more effectively than ATRA1-R3 | – | – | –
KRAKKFFKRLK (SEQ ID NO: 6) [ATRA1-AR] | – | completely ineffective | lowest LPS binding of all of the peptides tested | – | – | –
RRFKRFFKRLK (SEQ ID NO: 9) [ATRA1-R3] | significantly reduced in DPBS relative to its activity in PBS | – | higher LPS binding than ATRA1 | – | – | –
KRFKKFFKKLKNSVKKRAKKFFKKPK (SEQ ID NO: 53) [NA-CATH26, first 26 residues of NA-CATH] | – | – | – | ~14 fold | – | decrease in affinity for LPS relative to NA-CATH ([2]; deletion of hydrophobic tail): ~30%; decrease of efficacy under physiologically relevant ionic conditions [1]: approximately 2 fold
KRFKKFFKKLKGGVIGVTFPF (SEQ ID NO: 38) [ATRA1-HYD, ATRA1 with hydrophobic tail of NA-CATH joined at the C-terminus by a short -GG- segment] | – | – | – | ~10 fold | approximately 2 fold | increase in affinity for LPS compared to the peptide lacking the hydrophobic tail [2]: ~2 fold
KRWKKWWKKWK (SEQ ID NO: 14) [ATRA1-W4] | most effective in DPBS | – | higher efficacy to bind LPS than the parent ATRA1 | – | – | –
RRWKRFFKRWKGGVIGVTFPF (SEQ ID NO: 50) [ATRA1-R3W2-HYD, ATRA1-R3W2 with hydrophobic tail of NA-CATH joined by -GG-] | – | – | binds LPS with similar affinity as ATRA1-HYD | – | did not demonstrate significant changes in EC50 values | increase in affinity for LPS compared to the peptide lacking the hydrophobic tail [2]: ~2 fold; decrease of efficacy under physiologically relevant ionic conditions [1]: ~5 fold
KRAKKFFKKLK (SEQ ID NO: 4) [ATRA1-A] | lose activity in DPBS | retained some antimicrobial activity | decreased LPS binding relative to ATRA1 | – | – | –
RRWKRFFKRWK (SEQ ID NO: 15) [ATRA1-R3W2] | more effective than either of its parent peptides | – | more effective in LPS binding than either of ATRA1-R3 and ATRA1-W2; also recorded: binds LPS marginally greater than ATRA1 | approximately 3 fold | ~5 fold | antimicrobial efficacy, in words ([1]; serum): no antimicrobial property
